{"source": "paper PMC9499525", "about": "“Tissue-restricted inhibition of mTOR using chemical genetics” (Proceedings of the National Academy of Sciences of the …, 2022)", "key": {"[1]": {"system": "mTOR signaling in Flp-In T-REx 293 FKBP12 V55G cells", "experiment": "mTOR signaling by Western blot in FKBP12 V55G-expressing Flp-In 293 cells", "assay_type": "cell-based, human", "settings": "for IC50: Homo sapiens, 24 h treatment, mutant (FKBP12 V55G) 293 cells", "method": "All cell lines were maintained in DMEM (Gibco) supplemented with 10% heat-inactivated FBS (Axenia Biologix) at 37 °C in 5% CO2. Flp-In T-REx 293 cells were obtained from Thermo Fisher supplemented with 15 µg/mL blasticin and 100 µg/mL Zeocin. Flp-In T-REx 293 FKBP12 V55G cells were supplemented with 15 µg/mL blasticin and 150 µg/mL hygromycin B. FKBP12 V55G expression was induced with 1 µg/mL doxycycline 24 h prior to drug treatments. MCF7 cells were obtained from ATCC (American Type Culture Collection), and MCF7 mTOR F2108L cells were described previously ([30]). When indicated, cells were treated with drugs at 60–80% confluency at a final DMSO concentration of 0.1%. At the end of the treatment period, cells were placed on ice and washed once with PBS. Cells were scraped with a spatula and lysed in radioimmunoprecipitation assay (RIPA) buffer supplemented with protease and phosphatase inhibitors (cOmplete and phosSTOP, Roche) on ice for 5 min. Lysates were clarified by high-speed centrifugation. Lysate concentration was determined by Bradford assay (Thermo Fisher) and adjusted to 2 mg/mL with additional RIPA buffer. Samples were mixed with 5x SDS loading dye and heated at 95 °C for 5 min.\nSDS-PAGE was run with Novex 4–12% Bis-Tris gel (Invitrogen) in MOPS running buffer at 200V for 40 min. Samples were loaded at 20 µg lysate per lane. Protein bands were transferred onto 0.2 µm nitrocellulose membranes (Bio-Rad) using wet tank transfer apparatus (Bio-Rad Criterion Blotter) in 1x TOWBIN buffer with 10% methanol at 75V for 45 min. Membranes were blocked in 5% BSA-TBST (tris-buffered saline, 0.1% Tween 20) for 1 h at room temperature. Membranes were cut into separate strips for each primary antibody. Primary antibody binding was performed with the indicated antibodies at manufacturer’s recommended dilution in 5% BSA-TBST at 4 °C overnight. After three 5 min. washes with TBST, secondary antibodies (Li-COR) were added as solutions in 5% skim milk-TBST at 1:10,000 dilutions. Secondary antibodies were incubated for 1 h at room temperature. Following three 5 min. washes with TBST, membranes were imaged on a Li-COR Odyssey fluorescence imager. Image contrast was adjusted independently for each strip using the “Auto” adjustment function in Fiji. Blot quantification was performed in Fiji, and data were graphed and fit in Prism 9 (GraphPad). The following primary antibodies were obtained from Cell Signaling Technology (CST), Abcam (ab), and ProteinTech (PT): S6 (CST 2317), phospho-S6 S240/244 (CST 5364), S6K (CST 2708), phospho-S6K T389 (CST 9206), Akt (CST 2920), phospho-Akt S473 (CST 4060), HA (CST 3724), FKBP12 (ab58072), and GAPDH (PT 60004). For detection of phosphorylated and total protein, primary antibodies for phospho-Akt/Akt, phospho-S6K/S6K, or phospho-S6/S6 were combined and detected using a mixture of species-specific secondary antibodies with orthogonal fluorescence to allow simultaneous detection of phosphorylated and total protein from a single membrane, or membrane was stripped (Cell Signaling Technology) after detection of phosphorylated protein and then reblocked and reprobed with primary antibody for total protein. […]\nGeneration of 293 Flp-In T-REx FKBP12 V55G cell line\nFKBP12 V55G-expressing Flp-In T-REx 293 cells were generated using recommended conditions from Thermo Fisher. Briefly, human FKBP12 V55G-HA coding sequence was cloned into the pcDNA5/FRT/TO targeting vector by Gibson assembly. […]"}, "[2]": {"experiment": "Bidirectional Caco-2 cell permeability", "assay_type": "in vitro ADME", "settings": "human, LC-MS", "method": "PAMPA and Caco-2 membrane permeability assays […]\nMS) after 5 hours. Bidirectional Caco-2 cell permeability assay was performed by Quintara\nDiscovery. Compounds were analyzed at 10 µM and measured by LC-MS after 1 hour."}}, "note": "Read-outs that look alike come from different tables or passages of the source.", "data": [{"molecule": "CCO/N=C1/C[C@@H]([C@H](C)C[C@@H]2CC[C@@H](O)[C@H](OC)C2)OC(=O)[C@@H]2CCCCN2C(=O)C(=O)[C@]2(O)O[C@@H](CC[C@H]2C)C[C@H](OC)/C(C)=C/C=C/C=C/[C@@H](C)C[C@@H](C)C(=O)[C@H](OC)[C@H](O)/C(C)=C/[C@H]1C", "note": "[Rapa*-3Z]", "values": [{"measurement": "Time to half-maximal inhibition of S6 phosphorylation", "setting": "[1]; 10 nM, mutant FKBP12 293 cells", "value": 31, "unit": "min"}, {"measurement": "Akt phosphorylation (mTORC2 substrate)", "setting": "[1]; 24 h, mutant vs wild-type 293 cells", "value": "selectively reduced Akt phosphorylation in the mutant 293 cells at higher doses"}, {"measurement": "IC50", "setting": "[1]; read-out: IC50 phospho-S6", "value": 1.3, "unit": "nM"}, {"measurement": "IC50", "setting": "[1]; read-out: IC50 phospho-S6K", "value": 1, "unit": "nM"}, {"measurement": "Increase in sensitivity in mutant-expressing cells vs wild-type cells", "setting": "[1]; p-S6K and p-S6 IC50s, 24 h", "value": "~100", "unit": "fold"}, {"measurement": "Papp A→B at 1 h, 10 µM", "setting": "[2]", "value": "< 0.5", "unit": "×10⁻⁶ cm/s"}, {"measurement": "Papp B→A at 1 h, 10 µM", "setting": "[2]", "value": 1, "unit": "×10⁻⁶ cm/s"}, {"measurement": "Stability under experimental conditions (fly food, room temperature)", "setting": "15 days, 100 µM", "value": "at least 15 d"}, {"measurement": "Decomposition to rapamycin after prolonged storage", "setting": "storage under experimental conditions, wild-type larvae readout", "value": "does not decompose to rapamycin"}]}]}
